Measured values from patent publication US20220056019A1, “FARNESOID X RECEPTOR AGONISTS AND USES THEREOF” (Metacrine, Inc., priority 2018, published 2022).

Target: T1, hFXR (Homo sapiens, UniProt Q96RI1)
T1 construct: expressed in transfected cells; host or cells: CV-1 cells
T1 sequence (Q96RI1 1-486): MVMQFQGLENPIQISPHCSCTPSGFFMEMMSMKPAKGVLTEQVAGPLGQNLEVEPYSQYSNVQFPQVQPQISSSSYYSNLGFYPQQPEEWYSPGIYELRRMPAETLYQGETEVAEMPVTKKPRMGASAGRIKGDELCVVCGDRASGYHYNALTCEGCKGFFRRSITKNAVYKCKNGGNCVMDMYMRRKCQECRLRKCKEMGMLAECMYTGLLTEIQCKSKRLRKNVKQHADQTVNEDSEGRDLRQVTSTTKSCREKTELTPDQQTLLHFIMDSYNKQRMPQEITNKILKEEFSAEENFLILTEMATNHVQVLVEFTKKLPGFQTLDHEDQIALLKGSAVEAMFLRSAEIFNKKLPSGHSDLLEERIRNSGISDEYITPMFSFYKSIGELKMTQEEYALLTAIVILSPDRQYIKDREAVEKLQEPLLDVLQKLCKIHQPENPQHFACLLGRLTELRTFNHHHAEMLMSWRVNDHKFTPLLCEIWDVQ
T1 sequence (P19793 1-462 partner): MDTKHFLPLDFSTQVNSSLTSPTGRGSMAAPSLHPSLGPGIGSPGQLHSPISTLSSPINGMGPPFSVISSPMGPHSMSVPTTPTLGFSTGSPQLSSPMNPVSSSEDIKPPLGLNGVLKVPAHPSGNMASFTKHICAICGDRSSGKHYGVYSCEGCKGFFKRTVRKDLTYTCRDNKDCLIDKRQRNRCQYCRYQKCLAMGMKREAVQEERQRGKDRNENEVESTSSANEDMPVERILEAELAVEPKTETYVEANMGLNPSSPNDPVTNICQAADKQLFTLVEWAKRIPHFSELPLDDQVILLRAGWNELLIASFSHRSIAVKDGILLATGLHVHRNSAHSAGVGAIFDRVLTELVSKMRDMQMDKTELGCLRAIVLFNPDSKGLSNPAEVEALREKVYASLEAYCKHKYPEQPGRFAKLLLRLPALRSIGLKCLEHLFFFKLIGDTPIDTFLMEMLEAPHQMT
Test: In Vitro FXR Assay (TK): TK-ECRE-luc reporter in transfected CV-1 cells
Format: cell-based
Settings: 18 hrs incubation, luminescence
How it was run: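 CV-1 cells in DMEM with 10% charcoal-stripped FBS were transiently co-transfected with hFXR, hRXR, TK-ECRE-luc reporter and pCMX-YFP plasmids over 18 h at 37 °C. Compounds serially diluted in DMSO were added for 18 h; cells were then lysed and luciferase luminescence measured.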

Compound	EC50 [nM]
COc1ccc([C@H]2CC[C@H](CN(c3cc(-c4cc(C5CC5)on4)ccn3)C(=O)[C@H]3CC[C@H](OC(=O)N4CC(O)C4)CC3)CC2)cc1C [Compound 2.09, trans-4-((4-(5-Cyclopropylisoxazol-3-yl)pyridin-2-yl)((trans-4-(4-methoxy-3-methylphenyl)cyclohexyl)methyl)carbamoyl)cyclohexyl 3-hydroxyazetidine-1-carboxylate]	≤ 50
COc1ccc(C23CCC(CN(c4cc(-c5cnn(C(C)C)c5)ccn4)C(=O)[C@H]4CC[C@H](NC(=O)OC5COC5)CC4)(CC2)CC3)cc1C [Compound 7.02, (trans)-Oxetan-3-yl (4-((4-(1-isopropyl-1H-pyrazol-4-yl)pyridin-2-yl)((4-(4-methoxy-3-methylphenyl)bicyclo[2.2.2]octan-1-yl)methyl)carbamoyl)cyclohexyl) carbamate]	≤ 50
COc1ccc(C23CCC(CN(c4cc(-c5cnn(C6(C)CCC6)c5)ccn4)C(=O)[C@H]4CC[C@H](OC(=O)N5CC(CO)C5)CC4)(CC2)CC3)cc1C [Compound 25.21, 4-(((4-(4-Methoxy-3-methylphenyl)bicyclo[2.2.2]octan-1-yl)methyl)(4-(1-(1-methylcyclobutyl)-1H-pyrazol-4-yl)pyridin-2-yl)carbamoyl)(trans-cyclohexyl) 3-(hydroxymethyl)azetidine-1-carboxylate]	≤ 50
COc1ccc(C23CCC(CN(c4cc(-c5cnn(C(C)C)c5)ccn4)C(=O)[C@H]4CC[C@H](OC(=O)N5CC(O)C5)CC4)(CC2)CC3)cc1C [Compound 4, 4-((4-(1-Isopropyl-1H-pyrazol-4-yl)pyridin-2-yl)((4-(4-methoxy-3-methylphenyl)bicyclo[2.2.2]octan-1-yl)methyl)carbamoyl)cyclohexyl 3-hydroxyazetidine-trans-1-carboxylate]	≤ 50
COc1ccc(C23CCC(CN(c4cc(-c5cnn(C6CCS(=O)(=O)CC6)c5)ccn4)C(=O)[C@H]4CC[C@H](OC(=O)N5CC(O)C5)CC4)(CC2)CC3)cc1C [Compound 26.23, 4-((4-(1-(1,1-Dioxidotetrahydro-2H-thiopyran-4-yl)-1H-pyrazol-4-yl)pyridin-2-yl)((4-(4-methoxy-3-methylphenyl)bicyclo[2.2.2]octan-1-yl)methyl)carbamoyl)cyclohexyl trans-3-hydroxyazetidine-1-carboxylate]	1000 to 10000
O=C(O[C@H]1CC[C@H](C(=O)N(C[C@H]2CC[C@H](c3cc4ccccn4c3)CC2)c2cccc(-c3cnc(C4CC4)s3)c2)CC1)N1CC(O)C1 [Compound 5.14, trans-4-((3-(2-Cyclopropylthiazol-5-yl)phenyl)((trans-4-(indolizin-2-yl)cyclohexyl)methyl)carbamoyl) cyclohexyl 3-hydroxyazetidine-1-carboxylate]	≤ 50
COc1ccc([C@H]2CC[C@H](CN(c3cc(-c4cnn(C(F)(F)F)c4)ccn3)C(=O)[C@H]3CC[C@H](OC(=O)N4CC(O)C4)CC3)CC2)cc1C [Compound 2.57, trans-4-((((trans)-4-(4-Methoxy-3-methylphenyl)cyclohexyl)methyl) (4-(1-(trifluoromethyl)-1H-pyrazol-4-yl)pyridin-2-yl)carbamoyl)cyclohexyl 3-hydroxyazetidine-1-carboxylate]	≤ 50
COc1ccc(C23CCC(CN(c4cc(-c5cnc(C(C)C)s5)ccn4)C(=O)[C@H]4CC[C@H](OC(=O)NCCCO)CC4)(CC2)CC3)cc1C [Compound 4.33, 4-((4-(2-Isopropylthiazol-5-yl)pyridin-2-yl)((4-(4-methoxy-3-methylphenyl)bicyclo[2.2.2]octan-1-yl)methyl)carbamoyl)(trans-cyclohexyl) (3-hydroxypropyl)carbamate]	≤ 50
COc1ccc(C23CCC(CN(c4cc(-c5cnc(C6CC6)s5)ccn4)C(=O)[C@H]4CC[C@H](NC(=O)CO)CC4)(CC2)CC3)cc1C [Compound 9.08, (trans)-N-(4-(2-Cyclopropylthiazol-5-yl)pyridin-2-yl)-4-(2-hydroxyacetamido)-N-((4-(4-methoxy-3-methylphenyl)bicyclo[2.2.]octan-1-yl)methyl)cyclohexanecarboxamide]	≤ 50
COc1ccc(C23CCC(CN(c4cc(-c5cnn(C(C)C)c5)ccn4)C(=O)[C@H]4CC[C@H](OC(=O)N5CC(C#N)C5)CC4)(CC2)CC3)cc1C [Compound 4.45, 4-((4-(1-Isopropyl-1H-pyrazol-4-yl)pyridin-2-yl) ((4-(4-methoxy-3-methylphenyl)bicyclo [2.2.2]octan-1-yl)methyl)carbamoyl)cyclohexyl trans-3-cyanoazetidine-1-carboxylate]	≤ 50
COc1ccc(C23CCC(CN(c4cc(-c5cnn(C(C)C)c5)ccn4)C(=O)[C@H]4CC[C@H](NC(C)=O)CC4)(CC2)CC3)cc1C [Compound 10.05, trans-4-Acetamido-N-(4-(1-isopropyl-1H-pyrazol-4-yl)pyridin-2-yl)-N-((4-(4-methoxy-3-methylphenyl)bicyclo[2.2.2]octan-1-yl)methyl)cyclohexane-carboxamide]	≤ 50
COc1ccc(C23CCC(CN(c4cc(-c5cnn(C6(C)CCC6)c5)ccn4)C(=O)[C@H]4CC[C@H](OC(=O)N5CC(S(C)(=O)=O)C5)CC4)(CC2)CC3)cc1C [Compound 25.19, 4-(((4-(4-Methoxy-3-methylphenyl)bicyclo[2.2.2]octan-1-yl)methyl)(4-(1-(1-methylcyclobutyl)-1H-pyrazol-4-yl)pyridin-2-yl)carbamoyl)(trans-cyclohexyl) 3-(methylsulfonyl)azetidine-1-carboxylate]	≤ 50
COc1ccc([C@H]2CC[C@H](CN(c3cccc(-c4cnn(C(C)C)c4)c3)C(=O)[C@H]3CC[C@H](CNS(=O)(=O)C(C)C)CC3)CC2)cc1C [Compound 12.04, (trans)-N-(3-(1-Isopropyl-1H-pyrazol-4-yl)phenyl)-N-(((trans)-4-(4-methoxy-3-methylphenyl)cyclohexyl)methyl)-4-((1-methylethylsulfonamido)methyl)cy-clohexanecarboxamide]	50 to 1000
COc1ccc(C23CCC(CN(c4cc(-c5coc(C6CC6)n5)ccn4)C(=O)[C@H]4CC[C@H](OC(=O)N5CC(CO)C5)CC4)(CC2)CC3)cc1C [Compound 4.31, 4-((4-(2-Cyclopropyloxazol-4-yl)pyridin-2-yl)((4-(4-methoxy-3-methylphenyl)bicyclo[2.2.2]octan-1-yl)methyl)carbamoyl)(trans-cyclohexyl) 3-(hydroxymethyl)azetidine-1-carboxylate]	≤ 50
COc1ccc(C23CCC(CN(c4cc(-c5cnn(C(C)C)c5)ncn4)C(=O)[C@H]4CC[C@H](OC(=O)NCCCO)CC4)(CC2)CC3)cc1C [Compound 23.19, 4-((6-(1-Isopropyl-1H-pyrazol-4-yl)pyrimidin-4-yl)((4-(4-methoxy-3-methylphenyl)bi-cyclo[2.2.2]octan-1-yl)methyl)carbamoyl)(trans-cyclohexyl) (3-hydroxypropyl)carbamate]	≤ 50
COc1ccc(C23CCC(CN(c4cc(-c5cnc(C(C)C)s5)ccn4)C(=O)[C@H]4CC[C@H](NC(=O)CO)CC4)(CC2)CC3)cc1C [Compound 9, (trans)-4-(2-Hydroxyacetamido)-N-(4-(2-isopropylthiazol-5-yl)pyridin-2-yl)-N-((4-(4-methoxy-3-methylphenyl)bicyclo[2.2.2]octan-1-yl)methyl)cyclohexanecarboxamide]	≤ 50
COc1ccc(C23CCC(CN(c4ccnc(-c5cnn(C6(C)CCC6)c5)c4)C(=O)[C@H]4CC[C@H](OC(=O)N5CC(O)C5)CC4)(CC2)CC3)cc1C [Compound 25.23, 4-(((4-(4-Methoxy-3-methylphenyl)bicyclo[2.2.2]octan-1-yl)methyl)(2-(1-(1-methylcyclobutyl)-1H-pyrazol-4-yl)pyridin-4-yl)carbamoyl)cyclohexyl trans-3-hydroxyazetidine-1-carboxylate]	≤ 50
COc1ccc(C23CCC(CN(c4ncc(F)c(-c5cnn(C(C)C)c5)c4F)C(=O)[C@H]4CC[C@H](OC(=O)N5CC(O)C5)CC4)(CC2)CC3)cc1C [Compound 25.14, 4-((3,5-Difluoro-4-(1-isopropyl-1H-pyrazol-4-yl)pyridin-2-yl)((4-(4-methoxy-3-methylphenyl)bicyclo[2.2.2]octan-1-yl)methyl)carbamoyl)(trans-cyclohexyl) 3-hydroxyazetidine-1-carboxylate]	≤ 50
COc1ccc(C23CCC(CN(c4cc(-c5cnc(C(C)C)s5)ccn4)C(=O)[C@H]4CC[C@H](OC(=O)N5CC(S(C)(=O)=O)C5)CC4)(CC2)CC3)cc1C [Compound 4.34, 4-((4-(2-Isopropylthiazol-5-yl)pyridin-2-yl)((4-(4-methoxy-3-methylphenyl)bicyclo[2.2.2]octan-1-yl)methyl)carbamoyl)(trans-cyclohexyl) 3-(methylsulfonyl)azetidine-1-carboxylate]	≤ 50
